Converted amounts (≈) assume the structure as drawn. Residues, ends and D or L forms follow the SMILES beside them.
Legend:
[1] = cited from earlier work
Source text: (§1) Overall, our work highlights the potential of […] analogs in comparison to related Trp-rich AMPs as potent antibiofilm peptides that can interfere in biofilms produced by P. aeruginosa and potentially other Gram-negative pathogenic bacteria. New antibiofilm agents are welcome for this organism, as P. aeruginosa is well-known to have numerous mechanisms to elude the action of antibiotics during biofilm formation. Various factors can influence the suitability of AMPs to act as bactericidal and antibiofilm peptides simultaneously (for a general discussion see, for example, [74]). One ...

[2] = test system: P. aeruginosa PAO1 GFP; test: MIC against planktonic cells, absorbance at 600 nm; assay type: cell-based, Pseudomonas aeruginosa; conditions: Table 2, BM2 medium, absorbance 600 nm, mean of three biological replicates
Outline: (§2)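 GFP-expressing P. aeruginosa PAO1 exposed to peptides; planktonic MIC read by absorbance at 600 nm, while MBIC (prevention) and MBEC (eradication) used biofilm GFP fluorescence at 480/530 nm. Triplicate biological replicates averaged, with untreated growth and medium-only controls on each plate.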

[3] = test system: peripheral blood mononuclear cells (PBMCs); conditions: cited from earlier work
Source text: as §1

[4] = test system: red blood cells; conditions: cited from earlier work
Source text: as §1

[5] = test system: P. aeruginosa PAO1 GFP; test: MBIC, prevention of biofilm formation, GFP fluorescence method; assay type: cell-based, Pseudomonas aeruginosa; conditions: Table 2, BM2 medium, mean of three biological replicates
Outline: as §2

[6] = test system: S. aureus GFP; test: MBEC, GFP fluorescence method; assay type: cell-based, Staphylococcus aureus; conditions: Table 4, Sa GFP, 10% TSB and 0.1% glucose, mean of three biological replicates
Outline: (§3)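 GFP-expressing S. aureus, triplicate biological replicates. MIC on planktonic cells by absorbance at 600 nm. MBIC and MBEC from biofilm GFP fluorescence (480/530 nm), with untreated growth and media-only controls.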

[7] = test system: S. aureus GFP; test: MIC against planktonic cells, absorbance at 600 nm; assay type: cell-based, Staphylococcus aureus; conditions: Table 4; Sa GFP, 10% TSB and 0.1% glucose; absorbance 600 nm; mean of three biological replicates
Outline: as §3

[8] = test system: P. aeruginosa PAO1 GFP; test: MBEC, biofilm eradication, GFP fluorescence method; assay type: cell-based, Pseudomonas aeruginosa; conditions: Table 2, BM2 medium, mean of three biological replicates
Outline: as §2

[9] = test system: P. aeruginosa PAO1; assay type: cell-based, Pseudomonas aeruginosa; conditions: Table 5; PAO1, 1x BM2; biofilms on pegs, cells plated and counted; three biological replicates
Outline: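 Biofilm eradication (MBEC) for peptides against P. aeruginosa PAO1 in 1× BM2 medium, from counts of biofilm cells; GFP-producing strain fluorescence, crystal violet staining and Calgary peg device also used. Three biological replicates, mean ± SD, with untreated growth and medium-only controls.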

[10] = test system: S. aureus GFP; test: MBIC, GFP fluorescence method; assay type: cell-based, Staphylococcus aureus; conditions: Table 4, Sa GFP, 10% TSB and 0.1% glucose, mean of three biological replicates
Outline: as §3

[11] = test system: P. aeruginosa PAO1; assay type: cell-based
Outline: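 Peptides tested against P. aeruginosa PAO1 in 1× BM2 medium; planktonic growth read at 600 nm for MIC. Biofilm inhibition and eradication quantified by 0.1% crystal violet staining (15 min), ethanol release, absorbance at 595 nm, plus GFP-fluorescence and Calgary peg-device methods; triplicate means.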

[12] = test system: P. aeruginosa PAO1; assay type: cell-based, Pseudomonas aeruginosa; conditions: Table 5; regular PAO1 (no GFP), 1x BM2; absorbance 600 nm; mean of three biological replicates
Outline: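 PAO1 tested with peptides in 1× BM2; planktonic growth read at 600 nm, biofilm quantified by 0.1% crystal violet staining (15 min), ethanol release and 595 nm reading, using a Calgary biofilm device. Values are means of three replicates with untreated-growth and medium-only controls.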

[13] = test system: S. aureus GFP; assay type: cell-based, Staphylococcus aureus; conditions: Table 4; Sa GFP; lowest concentration of peptide with no bacterial growth seen on the spot agar plate

NCC(N)C(=O)O (stereo not drawn) [Dap, 2,3-diaminopropionic acid]
sidechain pKa value [1]: 6.3

CC(C)C[C@H](NC(=O)[C@H](Cc1ccccc1)NC(=O)[C@H](C)NC(=O)[C@H](Cc1c[nH]c2ccccc12)NC(=O)[C@H](Cc1c[nH]c2ccccc12)NC(=O)[C@H](Cc1c[nH]c2ccccc12)NC(=O)[C@H](C)NC(=O)[C@H](Cc1ccccc1)NC(=O)[C@H](CCCNC(=N)N)NC(=O)[C@H](CCCNC(=N)N)NC(=O)[C@@H](N)C(C)C)C(=O)N[C@@H](CCCNC(=N)N)C(=O)N[C@@H](CCCNC(=N)N)C(N)=O [Tritrp-P59A] (H-VRRFAWWWAFLRR-NH2)
MIC at 600 nm LD50 [2]: 2 µM (≈ 3.7 µg/mL) | MIC at 600 nm LD90 [2]: 4 µM (≈ 7.4 µg/mL) | cytotoxicity activities against PBMCs [3]: quite strong | hemolytic activity [4]: relatively strong | MBIC at 488 and 530 nm LD50 [5]: 2 µmol/L | MBIC at 488 and 530 nm LD90 [5]: 4 µmol/L | MBEC at 488 and 530 nm LD50 [6]: 1 µmol/L | MBEC at 488 and 530 nm LD90 [6]: 2 µmol/L | MIC at 600 nm LD50 [7]: 1 µM (≈ 1.85 µg/mL) | MIC at 600 nm LD90 [7]: 2 µM (≈ 3.7 µg/mL) | MBEC at 488 and 530 nm LD50 [8]: 8 µmol/L | MBEC at 488 and 530 nm LD90 [8]: 16 µmol/L | MBEC from Calgary Biofilm Device (CBD) LD50 [9]: 16 µmol/L | MBEC from Calgary Biofilm Device (CBD) LD90 [9]: 32 µmol/L | MBIC at 488 and 530 nm LD50 [10]: 2 µmol/L | MBIC at 488 and 530 nm LD90 [10]: 2 µmol/L | MBIC (CV at 595 nm) LD50 ([11]; PAO1): 4 µmol/L | MBRC (CV at 595 nm) LD50 ([11]; PAO1): 32 µmol/L | MBIC (CV at 595 nm) LD90 ([11]; Table 5, PAO1, 1x BM2, crystal violet at 595 nm, mean of three biological replicates): 4 µmol/L | MBRC (CV at 595 nm) LD90 ([11]; Table 5, minimum biofilm reduction concentration, PAO1, 1x BM2, crystal violet at 595 nm, mean of three biological replicates): 32 µmol/L | MIC at 600 nm LD50 [12]: 2 µM (≈ 3.7 µg/mL) | MIC at 600 nm LD90 [12]: 4 µM (≈ 7.4 µg/mL) | MBC Agar Plate [13]: 4 µM (≈ 7.4 µg/mL)
